From PubChem BioAssay AID248 (DTP/NCI, 2004)
Where “and” joins values, the source holds several entries; their conditions need not be identical. Equal entries are not always repeated. Inconclusive results and toxic doses are left out.

System: L1210 leukemia ip in BDF1 mice, survival T/C
Test: NCI In Vivo Anticancer Drug Screen. Data for tumor model L1210 Leukemia (intraperitoneal) in B6D2F1 (BDF1) mice
Conditions: endpoint: mean survival time, higher = longer survival
Method in brief: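 Tumor cells were implanted, animals were treated, and survival was followed. The result divides the treated measurement by the vehicle-control measurement.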

[1] = dose: 100.0 mg/kg/injection, schedule: Q01DX009 (ip), vehicle: saline with Tween-80
[2] = dose: 100.0 mg/kg/injection, schedule: Q04DX003 (ip), vehicle: saline with Tween-80
[3] = dose: 200.0 mg/kg/injection, schedule: Q01DX009 (ip), vehicle: saline with Tween-80
[4] = dose: 200.0 mg/kg/injection, schedule: Q04DX003 (ip), vehicle: saline with Tween-80
[5] = dose: 400.0 mg/kg/injection, schedule: Q01DX009 (ip), vehicle: saline with Tween-80
[6] = dose: 400.0 mg/kg/injection, schedule: Q04DX003 (ip), vehicle: saline with Tween-80
[7] = dose: 100.0 mg/kg/injection, schedule: Q01DX001 (ip), vehicle: saline
[8] = dose: 200.0 mg/kg/injection, schedule: Q01DX001 (ip), vehicle: saline
[9] = dose: 400.0 mg/kg/injection, schedule: Q01DX001 (ip), vehicle: saline
[10] = dose: 100.0 mg/kg/injection, schedule: Q04DX003 (ip), vehicle: Klucel (hydroxypropylcellulose) (HPC)
[11] = dose: 200.0 mg/kg/injection, schedule: Q04DX003 (ip), vehicle: Klucel (hydroxypropylcellulose) (HPC)
[12] = dose: 400.0 mg/kg/injection, schedule: Q04DX003 (ip), vehicle: Klucel (hydroxypropylcellulose) (HPC)
[13] = dose: 100.0 mg/kg/injection, schedule: Q04DX003 (ip), vehicle: saline
[14] = dose: 200.0 mg/kg/injection, schedule: Q04DX003 (ip), vehicle: saline
[15] = dose: 400.0 mg/kg/injection, schedule: Q04DX003 (ip), vehicle: saline

CC(C)(C)C1CCC(C(=O)O)CC1 (configuration not stated)
T/C (dose: 50.0 mg/kg/injection, schedule: Q01DX009 (ip), vehicle: gum acacia): 102 % of control | T/C (dose: 100.0 mg/kg/injection, schedule: Q01DX009 (ip), vehicle: gum acacia): 103 % of control | T/C [1]: 95 % of control and 97 % of control | T/C (dose: 100.0 mg/kg/injection, schedule: Q04DX002 (ip), vehicle: gum acacia): 100 % of control | T/C (dose: 100.0 mg/kg/injection, schedule: Q04DX003 (ip), vehicle: gum acacia): 106 % of control | T/C [2]: 102 % of control and 89 % of control | T/C (dose: 200.0 mg/kg/injection, schedule: Q01DX009 (ip), vehicle: gum acacia): 105 % of control | T/C [3]: 94 % of control and 97 % of control | T/C (dose: 200.0 mg/kg/injection, schedule: Q04DX002 (ip), vehicle: gum acacia): 110 % of control | T/C (dose: 200.0 mg/kg/injection, schedule: Q04DX003 (ip), vehicle: gum acacia): 106 % of control | T/C [4]: 100 % of control and 94 % of control | T/C [5]: 97 % of control | T/C (dose: 400.0 mg/kg/injection, schedule: Q04DX002 (ip), vehicle: gum acacia): 110 % of control | T/C [6]: 89 % of control

CCOC(=O)C(C)(CCC#N)C(=O)OCC
T/C [7]: 95 % of control | T/C (dose: 100.0 mg/kg/injection, schedule: Q04DX002 (ip), vehicle: saline): 101 % of control | T/C [8]: 95 % of control | T/C (dose: 200.0 mg/kg/injection, schedule: Q04DX002 (ip), vehicle: saline): 105 % of control | T/C [9]: 95 % of control | T/C (dose: 400.0 mg/kg/injection, schedule: Q04DX002 (ip), vehicle: saline): 105 % of control

O=C1c2ccccc2C(=O)c2cc3cc(Cl)ccc3cc21
T/C [10]: 90 % of control | T/C [11]: 87 % of control | T/C [12]: 95 % of control

O=C1OC(c2ccccc2)=N/C1=C/c1ccc(OCc2ccccc2)c(OCc2ccccc2)c1
T/C (dose: 100.0 mg/kg/injection, schedule: Q01DX001 (ip), vehicle: saline with Tween-80): 91 % of control | T/C (dose: 200.0 mg/kg/injection, schedule: Q01DX001 (ip), vehicle: saline with Tween-80): 95 % of control | T/C (dose: 400.0 mg/kg/injection, schedule: Q01DX001 (ip), vehicle: saline with Tween-80): 86 % of control

NC(=O)N(CCCCN(N=O)C(N)=O)N=O
T/C (dose: 40.0 mg/kg/injection, schedule: Q01DX001 (ip), vehicle: saline with Tween-80): 152 % of control | T/C (dose: 60.0 mg/kg/injection, schedule: Q01DX001 (ip), vehicle: saline with Tween-80): 178 % of control | T/C (dose: 93.0 mg/kg/injection, schedule: Q01DX001 (ip), vehicle: saline with Tween-80): 246 % of control | T/C (dose: 500.0 mg/kg/injection, schedule: Q01DX001 (ip), vehicle: saline with Tween-80): 90 % of control

CC/C=C(\C)C1(CC)C(=O)NC(=S)NC1=O
T/C (dose: 75.0 mg/kg/injection, schedule: Q01DX001 (ip), vehicle: carboxymethylcellulose (CMC)): 89 % of control

O=[N+]([O-])c1ccc(C(Cl)S(=O)(=O)c2ccccc2)cc1 (configuration not stated)
T/C (dose: 50.0 mg/kg/injection, schedule: Q01DX001 (ip), vehicle: saline): 100 % of control | T/C (dose: 50.0 mg/kg/injection, schedule: Q01DX009 (ip), vehicle: Klucel (hydroxypropylcellulose) (HPC)): 103 % of control | T/C (dose: 50.0 mg/kg/injection, schedule: Q04DX003 (ip), vehicle: Klucel (hydroxypropylcellulose) (HPC)): 99 % of control | T/C [7]: 108 % of control | T/C (dose: 100.0 mg/kg/injection, schedule: Q01DX009 (ip), vehicle: Klucel (hydroxypropylcellulose) (HPC)): 92 % of control | T/C (dose: 100.0 mg/kg/injection, schedule: Q04DX002 (ip), vehicle: Klucel (hydroxypropylcellulose) (HPC)): 93 % of control and 100 % of control | T/C [10]: 111 % of control | T/C (dose: 119.0 mg/kg/injection, schedule: Q01DX001 (ip), vehicle: Klucel (hydroxypropylcellulose) (HPC)): 105 % of control | T/C (dose: 178.0 mg/kg/injection, schedule: Q01DX001 (ip), vehicle: Klucel (hydroxypropylcellulose) (HPC)): 100 % of control | T/C [8]: 97 % of control | T/C (dose: 200.0 mg/kg/injection, schedule: Q01DX009 (ip), vehicle: Klucel (hydroxypropylcellulose) (HPC)): 97 % of control | T/C (dose: 200.0 mg/kg/injection, schedule: Q04DX002 (ip), vehicle: Klucel (hydroxypropylcellulose) (HPC)): 100 % of control | T/C [11]: 107 % of control | T/C (dose: 266.0 mg/kg/injection, schedule: Q01DX001 (ip), vehicle: Klucel (hydroxypropylcellulose) (HPC)): 100 % of control | T/C (dose: 400.0 mg/kg/injection, schedule: Q01DX001 (ip), vehicle: Klucel (hydroxypropylcellulose) (HPC)): 97 % of control | T/C [9]: 95 % of control | T/C (dose: 400.0 mg/kg/injection, schedule: Q01DX009 (ip), vehicle: Klucel (hydroxypropylcellulose) (HPC)): 92 % of control | T/C [12]: 101 % of control | T/C (dose: 600.0 mg/kg/injection, schedule: Q01DX001 (ip), vehicle: Klucel (hydroxypropylcellulose) (HPC)): 94 % of control | T/C (dose: 600.0 mg/kg/injection, schedule: Q04DX002 (ip), vehicle: Klucel (hydroxypropylcellulose) (HPC)): 100 % of control

C=C(Br)CNC(=O)NCCN1CCOCC1
T/C [2]: 97 % of control | T/C [4]: 111 % of control | T/C [6]: 97 % of control

COC(=O)C1/C(=C/c2ccccc2)C(=O)c2ccccc21 (configuration not stated)
T/C (dose: 100.0 mg/kg/injection, schedule: Q04DX002 (ip), vehicle: saline with Tween-80): 87 % of control | T/C (dose: 200.0 mg/kg/injection, schedule: Q04DX002 (ip), vehicle: saline with Tween-80): 87 % of control | T/C (dose: 400.0 mg/kg/injection, schedule: Q04DX002 (ip), vehicle: saline with Tween-80): 94 % of control

COCCCNP(=S)(N1CC1)N1CC1
T/C (dose: 2.0 mg/kg/injection, schedule: Q01DX Z (ip), vehicle: saline): 92 % of control | T/C (dose: 4.0 mg/kg/injection, schedule: Q01DX Z (ip), vehicle: saline): 116 % of control

CCCCCCCC(=O)CCCCC
T/C [1]: 102 % of control | T/C [13]: 98 % of control | T/C [3]: 109 % of control | T/C [14]: 96 % of control | T/C [5]: 100 % of control | T/C [15]: 93 % of control

O=C(C1C2C=CC(CC2)C1C(=O)N1CCOCC1)N1CCOCC1 (configuration not stated)
T/C [13]: 100 % of control | T/C [14]: 96 % of control | T/C [15]: 96 % of control

CCCCCCCCCCC(CCCCCCCCCC)CC1CCCCC1
T/C (dose: 100.0 mg/kg/injection, schedule: Q01DX001 (ip), vehicle: saline + alcohol): 102 % of control | T/C (dose: 200.0 mg/kg/injection, schedule: Q01DX001 (ip), vehicle: saline + alcohol): 94 % of control | T/C (dose: 400.0 mg/kg/injection, schedule: Q01DX001 (ip), vehicle: saline + alcohol): 100 % of control

CCOCC(OC)OC
T/C (dose: 100.0 mg/kg/injection, schedule: Q01DX009 (ip), vehicle: saline): 95 % of control | T/C [13]: 93 % of control | T/C (dose: 200.0 mg/kg/injection, schedule: Q01DX009 (ip), vehicle: saline): 97 % of control | T/C [14]: 98 % of control | T/C (dose: 400.0 mg/kg/injection, schedule: Q01DX009 (ip), vehicle: saline): 97 % of control | T/C [15]: 107 % of control

COC1=C(Nc2cccc(C)c2)C(=O)C(OC)=C(Nc2cccc(C)c2)C1=O
T/C (dose: 50.0 mg/kg/injection, schedule: Q01DX001 (ip), vehicle: carboxymethylcellulose (CMC)): 94 % of control | T/C (dose: 100.0 mg/kg/injection, schedule: Q01DX001 (ip), vehicle: carboxymethylcellulose (CMC)): 96 % of control | T/C (dose: 200.0 mg/kg/injection, schedule: Q01DX001 (ip), vehicle: carboxymethylcellulose (CMC)): 94 % of control | T/C (dose: 400.0 mg/kg/injection, schedule: Q01DX001 (ip), vehicle: carboxymethylcellulose (CMC)): 91 % of control

C/C=C(\CC)C1(CCC)C(=O)NC(=O)N(C)C1=O (configuration not stated)
T/C (dose: 75.0 mg/kg/injection, schedule: Q01DX001 (ip), vehicle: other): 103 % of control | T/C (dose: 75.0 mg/kg/injection, schedule: Q01DX001 (ip), vehicle: saline): 95 % of control | T/C (dose: 150.0 mg/kg/injection, schedule: Q01DX001 (ip), vehicle: other): 103 % of control | T/C (dose: 150.0 mg/kg/injection, schedule: Q01DX001 (ip), vehicle: saline): 106 % of control | T/C (dose: 300.0 mg/kg/injection, schedule: Q01DX001 (ip), vehicle: other): 101 % of control | T/C (dose: 300.0 mg/kg/injection, schedule: Q01DX001 (ip), vehicle: saline): 106 % of control
